Several values for one entry are separate records, joined by “and”; a condition that tells them apart may be missing. Equal entries are not always repeated. Toxic doses and inconclusive results are not listed. Rule as the data show it: active = T/C of 150% or more; inactive = T/C below 125%.
System: L1210 leukemia ip in BDF1 mice, survival T/C
Assay: NCI In Vivo Anticancer Drug Screen. Data for tumor model L1210 Leukemia (intraperitoneal) in B6D2F1 (BDF1) mice
Details: endpoint: mean survival time, higher = longer survival
Procedure, shortened: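 Read-out is survival time, reported as the treated-group measurement over the vehicle-control measurement.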

[1] = dose: 100.0 mg/kg/injection, schedule: Q04DX002 (ip), vehicle: Klucel (hydroxypropylcellulose) (HPC)
[2] = dose: 200.0 mg/kg/injection, schedule: Q04DX002 (ip), vehicle: Klucel (hydroxypropylcellulose) (HPC)
[3] = dose: 100.0 mg/kg/injection, schedule: Q04DX003 (ip), vehicle: saline with Tween-80
[4] = dose: 200.0 mg/kg/injection, schedule: Q04DX003 (ip), vehicle: saline with Tween-80
[5] = dose: 400.0 mg/kg/injection, schedule: Q04DX003 (ip), vehicle: saline with Tween-80
[6] = dose: 50.0 mg/kg/injection, schedule: Q01DX009 (ip), vehicle: saline with Tween-80
[7] = dose: 100.0 mg/kg/injection, schedule: Q01DX009 (ip), vehicle: saline with Tween-80
[8] = dose: 400.0 mg/kg/injection, schedule: Q01DX009 (ip), vehicle: saline with Tween-80
[9] = dose: 100.0 mg/kg/injection, schedule: Q04DX003 (ip), vehicle: saline
[10] = dose: 200.0 mg/kg/injection, schedule: Q04DX003 (ip), vehicle: saline
[11] = dose: 200.0 mg/kg/injection, schedule: Q01DX009 (ip), vehicle: saline with Tween-80
[12] = dose: 50.0 mg/kg/injection, schedule: Q01DX001 (ip), vehicle: saline
[13] = dose: 50.0 mg/kg/injection, schedule: Q01DX009 (ip), vehicle: saline
[14] = dose: 50.0 mg/kg/injection, schedule: Q04DX003 (ip), vehicle: saline
[15] = dose: 100.0 mg/kg/injection, schedule: Q01DX001 (ip), vehicle: saline
[16] = dose: 100.0 mg/kg/injection, schedule: Q01DX009 (ip), vehicle: saline
[17] = dose: 200.0 mg/kg/injection, schedule: Q01DX001 (ip), vehicle: saline
[18] = dose: 400.0 mg/kg/injection, schedule: Q01DX001 (ip), vehicle: saline
[19] = dose: 100.0 mg/kg/injection, schedule: Q04DX003 (ip), vehicle: Klucel (hydroxypropylcellulose) (HPC)
[20] = dose: 200.0 mg/kg/injection, schedule: Q04DX003 (ip), vehicle: Klucel (hydroxypropylcellulose) (HPC)
[21] = dose: 400.0 mg/kg/injection, schedule: Q04DX003 (ip), vehicle: Klucel (hydroxypropylcellulose) (HPC)
[22] = dose: 400.0 mg/kg/injection, schedule: Q04DX002 (ip), vehicle: Klucel (hydroxypropylcellulose) (HPC)
[23] = dose: 25.0 mg/kg/injection, schedule: Q04DX003 (ip), vehicle: saline
[24] = dose: 100.0 mg/kg/injection, schedule: Q01DX009 (ip), vehicle: Klucel (hydroxypropylcellulose) (HPC)
[25] = dose: 200.0 mg/kg/injection, schedule: Q01DX009 (ip), vehicle: Klucel (hydroxypropylcellulose) (HPC)
[26] = dose: 400.0 mg/kg/injection, schedule: Q01DX009 (ip), vehicle: Klucel (hydroxypropylcellulose) (HPC)

Measured: T/C

CC(=O)OCC(OS(=O)(=O)c1ccc(C)cc1)C(OC(C)=O)C(OC(C)=O)C(COC(C)=O)OS(=O)(=O)c1ccc(C)cc1 (stereo not drawn)
inactive: dose: 50.0 mg/kg/injection, schedule: Q04DX002 (ip), vehicle: Klucel (hydroxypropylcellulose) (HPC) 90 % of control | [1] 101 % of control | [2] 101 % of control

COc1ccc(C(=O)c2cc(Br)ccc2O)cc1
inactive: dose: 100.0 mg/kg/injection, schedule: Q01DX001 (ip), vehicle: carboxymethylcellulose (CMC) 98 % of control | dose: 200.0 mg/kg/injection, schedule: Q01DX001 (ip), vehicle: carboxymethylcellulose (CMC) 100 % of control | dose: 400.0 mg/kg/injection, schedule: Q01DX001 (ip), vehicle: carboxymethylcellulose (CMC) 98 % of control

COc1ccccc1NC(N)=O
inactive: [3] 98 % of control | [4] 107 % of control | [5] 98 % of control

COc1cc([N+](=O)[O-])ccc1C(=O)NC(CCC(=O)O)C(=O)O (stereo not drawn)
inactive: dose: 100.0 mg/kg/injection, schedule: Q01DX001 (ip), vehicle: Klucel (hydroxypropylcellulose) (HPC) 95 % of control | dose: 200.0 mg/kg/injection, schedule: Q01DX001 (ip), vehicle: Klucel (hydroxypropylcellulose) (HPC) 106 % of control | dose: 400.0 mg/kg/injection, schedule: Q01DX001 (ip), vehicle: Klucel (hydroxypropylcellulose) (HPC) 100 % of control

C/C=C(/Cl)c1c(C)cc(C)cc1C
inactive: dose: 25.0 mg/kg/injection, schedule: Q01DX009 (ip), vehicle: saline with Tween-80 91 % of control | [6] 98 % of control | [7] 89 % of control and 91 % of control | [3] 101 % of control | [4] 98 % of control | [8] 98 % of control | [5] 101 % of control

CCN(CC)C(=O)c1ccccc1
inactive: [9] 103 % of control | [10] 110 % of control | dose: 400.0 mg/kg/injection, schedule: Q04DX003 (ip), vehicle: saline 105 % of control

COC1(OC)C2CCC1(Cl)C(Cl)=C2Cl (stereo not drawn)
inactive: [7] 95 % of control | [3] 93 % of control | [11] 92 % of control | [4] 91 % of control | [8] 89 % of control

CCOC(=O)c1c(-c2cc(OC)c(OC)c(OC)c2)csc1N
inactive: dose: 50.0 mg/kg/injection, schedule: Q04DX003 (ip), vehicle: saline with Tween-80 95 % of control | [3] 97 % of control | [4] 87 % of control | [5] 94 % of control

O/C=C(\Cl)CCl
inactive: [12] 100 % of control | [13] 107 % of control and 108 % of control | dose: 50.0 mg/kg/injection, schedule: Q04DX002 (ip), vehicle: saline 97 % of control and 106 % of control | [14] 97 % of control | [15] 90 % of control | [16] 101 % of control and 104 % of control | [9] 106 % of control

CC(=O)NCc1ccc(N2C(N)=NC(N)=NC2(C)C)cc1
inactive: dose: 75.0 mg/kg/injection, schedule: Q01DX009 (ip), vehicle: saline 92 % of control | dose: 150.0 mg/kg/injection, schedule: Q01DX009 (ip), vehicle: saline 87 % of control | dose: 300.0 mg/kg/injection, schedule: Q01DX009 (ip), vehicle: saline 90 % of control

CC(C)(C)NP(c1ccccc1)c1ccccc1
inactive: [15] 101 % of control | [17] 104 % of control | [18] 98 % of control

c1c[nH]c(N=Nc2ccc(N=Nc3ncc[nH]3)cc2)n1
inactive: [6] 100 % of control | [7] 94 % of control | [11] 94 % of control

O=c1[nH]ncn1-c1ccccc1
inactive: [19] 96 % of control | [20] 92 % of control | [21] 91 % of control

CC(N)C(=O)NCCCl (stereo not drawn)
inactive: dose: 10.0 mg/kg/injection, schedule: Q01DX Z (ip), vehicle: saline 91 % of control | dose: 30.0 mg/kg/injection, schedule: Q01DX Z (ip), vehicle: saline 104 % of control | dose: 100.0 mg/kg/injection, schedule: Q01DX Z (ip), vehicle: saline 91 % of control | dose: 300.0 mg/kg/injection, schedule: Q01DX Z (ip), vehicle: saline 93 % of control

CCS(=O)(=O)CCN1C(=O)C2C3CCC(O3)C2C1=O (stereo not drawn)
inactive: [1] 98 % of control | [2] 95 % of control | [22] 117 % of control

O=C(C[n+]1cccc(C(=O)Nc2ccc(Cl)cc2)c1)Nc1ccccc1
inactive: [9] 92 % of control | [10] 101 % of control

c1cc2[nH]c1C1(CCCC1)c1ccc([nH]1)C1(CCCC1)c1ccc([nH]1)C1(CCCC1)c1ccc([nH]1)C21CCCC1
inactive: [15] 102 % of control | [17] 103 % of control | [18] 94 % of control

Nc1ccc(C(=O)NCCCC(=O)O)cc1
inactive: [15] 108 % of control | [17] 103 % of control | [18] 95 % of control

Nc1ccn(C2OC(COC3CCCCO3)C(OC3CCCCO3)C2OC2CCCCO2)c(=O)n1 (stereo not drawn)
inactive: [13] 95 % of control | dose: 100.0 mg/kg/injection, schedule: Q01DX005 (ip), vehicle: saline 110 % of control | [16] 104 % of control | dose: 200.0 mg/kg/injection, schedule: Q01DX005 (ip), vehicle: saline 94 % of control | dose: 200.0 mg/kg/injection, schedule: Q01DX009 (ip), vehicle: saline 101 % of control

CN(C)C=Nc1ccc([N+](=O)[O-])c2ccccc12
inactive: [3] 103 % of control | [4] 106 % of control | [5] 104 % of control

CN(C)C(=O)Nc1ccc(Cl)cc1Cl
inactive: dose: 100.0 mg/kg/injection, schedule: Q04DX002 (ip), vehicle: saline with Tween-80 98 % of control | dose: 200.0 mg/kg/injection, schedule: Q04DX002 (ip), vehicle: saline with Tween-80 110 % of control | dose: 400.0 mg/kg/injection, schedule: Q04DX002 (ip), vehicle: saline with Tween-80 121 % of control

COc1ccc(NC(=O)c2ccco2)cc1
inactive: [1] 123 % of control | [2] 112 % of control | [22] 123 % of control

CN(C)Cc1cccc([N+](=O)[O-])c1
inactive: [23] 88 % of control | [14] 98 % of control | [9] 102 % of control

Clc1ccc2[nH]c(-c3ccccc3)c(-c3ccccc3)c2c1
inactive: [15] 92 % of control | dose: 100.0 mg/kg/injection, schedule: Q01DX009 (ip), vehicle: acetone 102 % of control | [17] 89 % of control | dose: 200.0 mg/kg/injection, schedule: Q01DX009 (ip), vehicle: acetone 102 % of control | [18] 96 % of control

O=C1c2cc(-c3ccccc3)ccc2C(c2ccccc2)C1NC1CCCCC1 (stereo not drawn)
inactive: dose: 37.5 mg/kg/injection, schedule: Q01DX001 (ip), vehicle: Klucel (hydroxypropylcellulose) (HPC) 89 % of control | dose: 75.0 mg/kg/injection, schedule: Q01DX001 (ip), vehicle: Klucel (hydroxypropylcellulose) (HPC) 89 % of control | dose: 150.0 mg/kg/injection, schedule: Q01DX001 (ip), vehicle: Klucel (hydroxypropylcellulose) (HPC) 89 % of control

CCOc1ccc(NC(=O)C(C(C)N2CCCCC2)N2CCCCC2)cc1 (stereo not drawn)
inactive: dose: 12.5 mg/kg/injection, schedule: Q01DX001 (ip), vehicle: saline 94 % of control | dose: 12.5 mg/kg/injection, schedule: Q01DX009 (ip), vehicle: saline 95 % of control | dose: 12.5 mg/kg/injection, schedule: Q04DX003 (ip), vehicle: saline 97 % of control | dose: 25.0 mg/kg/injection, schedule: Q01DX001 (ip), vehicle: saline 95 % of control | dose: 25.0 mg/kg/injection, schedule: Q01DX009 (ip), vehicle: saline 92 % of control | [23] 95 % of control | [12] 90 % of control | [13] 91 % of control | [14] 92 % of control

OCC(O)C(O)C(O)C(O)C1SCCS1 (stereo not drawn)
inactive: [24] 88 % of control | [19] 98 % of control and 103 % of control and 93 % of control | [25] 89 % of control | [20] 103 % of control and 93 % of control | [26] 100 % of control | [21] 115 % of control and 88 % of control

CN(C)C(=O)Sc1cc(Cl)c(S(=O)(=O)F)cc1Cl
inactive: [24] 97 % of control | [25] 100 % of control | [26] 90 % of control

— PubChem BioAssay AID248 (DTP/NCI, 2004)
